Assay results published in patent US5059624A, “Guanidine derivatives having hypotensive activity, composition containing them and process for obtaining them” (Consiglio Nazionale Delle Ricerche, priority 1988, dated 1991).
Where two headings read alike, the source gives them in different places.

Experiments:
[1] = Lethal dose 50 (LD50) through i.p. route in mice; settings: mouse, in vivo, ip
Protocol: The lethal dose 50 (LD50) of guanido-I through i.p. route in mice turned out to be 57 mg±3.6 per kg.
The lethal dose 50 (LD50) of the diguanido-II through i.p. route in mice, turned out to be 7 mg±0.6 per kg.

cardiovascular responses = test: Interaction and pretreatment experiments with diguanido-II (cardiovascular and respiratory responses); assay type: in vivo

Protocol for male Wistar rats: In order to check its activity, diguanido-II was dissolved in a 0.9 % sodium chloride solution and administered through "rapid" i.v. route in male Wistar rats, under general anaesthesia obtained by means of 10% ethyl urethan (i ml/hg).
The active ingredients called guanido-III, -IV, -V, as well as agmatine and galegine, were also tested, after having been administered through "rapid" i.v. route in male Wistar rats (weighing average 280±5 g) under general anaesthesia obtained by means of 10% ethyl uretan (1 ml/hg, i.p.). The general experimental conditions were exactly the same as previously mentioned for guanido-I and diguanido-II, so that the cardiovascular and respiratory effects could be compared.
The parameters measured are as follows: systolic and diastolic systemic arterial pressure (AP), heart rate (HR), maximum rate of increase in the left ventricular isovolumetric pressure (dp/dt), respiratory frequency (RF) and tidal volume (TV). The doses (in μg/kg body weight, referred to the active substance) varied from 50 μg/kg to 6,400 μg/kg (ratio=2.0); in some cases higher does have been employed.

COc1ccc([C@@H]2[C@@H](C(=O)NCCCCNC(=N)NCC=C(C)C)[C@@H](C(=O)NCCCCNC(=N)NCC=C(C)C)[C@@H]2c2ccc(OC)c(OC)c2)cc1OC [diguanido-II]
LD50 [1]: 7 mg/kg
cardiovascular responses after previous treatment with Hexameton (cardiovascular responses; previous treatment with Hexameton (ganglioplegic)): caused an increase in the cardiovascular responses
cardiovascular responses to acetylcholine and isoproterenol after previous treatment (cardiovascular responses; previous treatment with diguanido-II, agonists i.v., linear with agonist dose): increased the cardiovascular responses to administration, through i.v. route, of acetylcholine and isoproterenol
cardiovascular responses to nor-adrenaline and adrenaline after previous treatment (cardiovascular responses; previous treatment with diguanido-II, hypertensive doses of agonists): decreased the cardiovascular responses induced by hypertensive doses of nor-adrenaline and of adrenaline
Δ AF (male Wistar rats; 50 μg/kg i.v.): +18.8 ± 3.40 ml/min
Δ AF % (male Wistar rats; 50 μg/kg i.v.): +43 ± 3%
Δ AP % DIAST (male Wistar rats; 50 μg/kg i.v.): +11.0 ± 1.7%
Δ AP % SYST (male Wistar rats; 50 μg/kg i.v.): +15.0 ± 2.7%
Δ AP DIAST (male Wistar rats; 50 μg/kg i.v.): +9.8 ± 1.7 mmHg
Δ AP SYST (male Wistar rats; 50 μg/kg i.v.): +17.2 ± 2.4 mmHg
Δ HR (male Wistar rats; 50 μg/kg i.v.): -9 ± 3 beats/min
Δ HR % (male Wistar rats; 50 μg/kg i.v.): -3 ± 1%
Δ SV (male Wistar rats; 50 μg/kg i.v.): +72.6 ± 5 μl
Δ SV % (male Wistar rats; 50 μg/kg i.v.): +61 ± 5%
Δ TV (male Wistar rats; 50 μg/kg i.v.): +13 ± 3%
Δ dp/dt (male Wistar rats; 50 μg/kg i.v.): +1070 ± 90 mmHg/sec
Δ dp/dt % (male Wistar rats; 50 μg/kg i.v.): +17 ± 4%
Δ AF (male Wistar rats; 100 μg/kg i.v.): +10.8 ± 1.20 ml/min
Δ AF % (male Wistar rats; 100 μg/kg i.v.): +25 ± 1%
Δ AP % DIAST (male Wistar rats; 100 μg/kg i.v.): +11.0 ± 1.1%
Δ AP % SYST (male Wistar rats; 100 μg/kg i.v.): +10.0 ± 2.6%
Δ AP DIAST (male Wistar rats; 100 μg/kg i.v.): +10.2 ± 1.1 mmHg
Δ AP SYST (male Wistar rats; 100 μg/kg i.v.): +11.7 ± 2.5 mmHg
Δ HR (male Wistar rats; 100 μg/kg i.v.): -10 ± 1 beats/min
Δ HR % (male Wistar rats; 100 μg/kg i.v.): -3 ± 1%
Δ SV (male Wistar rats; 100 μg/kg i.v.): +19.8 ± 6 μl
Δ SV % (male Wistar rats; 100 μg/kg i.v.): +17 ± 6%
Δ TV (male Wistar rats; 100 μg/kg i.v.): +4 ± 1%
Δ dp/dt (male Wistar rats; 100 μg/kg i.v.): +1129 ± 82 mmHg/sec
Δ dp/dt % (male Wistar rats; 100 μg/kg i.v.): +18 ± 1%
Δ AF (male Wistar rats; 200 μg/kg i.v.): -13.8 ± 4.20 mL/min
Δ AF % (male Wistar rats; 200 μg/kg i.v.): -32 ± 4%
Δ AP % DIAST (male Wistar rats; 200 μg/kg i.v.): -9.0 ± 1.8%
Δ AP % SYST (male Wistar rats; 200 μg/kg i.v.): -13.0 ± 1.4%
Δ AP DIAST (male Wistar rats; 200 μg/kg i.v.): -13.1 ± 1.8 mmHg
Δ AP SYST (male Wistar rats; 200 μg/kg i.v.): -14.4 ± 1.4 mmHg
Δ HR (male Wistar rats; 200 μg/kg i.v.): -13 ± 4 beats/min
Δ HR % (male Wistar rats; 200 μg/kg i.v.): -4 ± 0.3%
Δ SV (male Wistar rats; 200 μg/kg i.v.): +23.1 ± 6 μl
Δ SV % (male Wistar rats; 200 μg/kg i.v.): +19 ± 6%
Δ TV (male Wistar rats; 200 μg/kg i.v.): +3 ± 2%
Δ dp/dt (male Wistar rats; 200 μg/kg i.v.): +1369 ± 170 mmHg/sec
Δ dp/dt % (male Wistar rats; 200 μg/kg i.v.): +21 ± 4%
Δ AF (male Wistar rats; 400 μg/kg i.v.): -14.3 ± 5.7 mL/min
Δ AF % (male Wistar rats; 400 μg/kg i.v.): -33 ± 6%
Δ AP % DIAST (male Wistar rats; 400 μg/kg i.v.): -18.0 ± 1.4%
Δ AP % SYST (male Wistar rats; 400 μg/kg i.v.): -18.0 ± 1.9%
Δ AP DIAST (male Wistar rats; 400 μg/kg i.v.): -17.0 ± 1.4 mmHg
Δ AP SYST (male Wistar rats; 400 μg/kg i.v.): -19.8 ± 1.9 mmHg
Δ HR (male Wistar rats; 400 μg/kg i.v.): -16 ± 5 beats/min
Δ HR % (male Wistar rats; 400 μg/kg i.v.): -5 ± 2%
Δ SV (male Wistar rats; 400 μg/kg i.v.): -46.2 ± 4 µL
Δ SV % (male Wistar rats; 400 μg/kg i.v.): -39 ± 4%
Δ TV (male Wistar rats; 400 μg/kg i.v.): -51 ± 7%
Δ dp/dt (male Wistar rats; 400 μg/kg i.v.): +2615 ± 181 mmHg/sec
Δ dp/dt % (male Wistar rats; 400 μg/kg i.v.): +41 ± 5%
Δ AF (male Wistar rats; 800 μg/kg i.v.): -25.0 ± 6.1 mL/min
Δ AF % (male Wistar rats; 800 μg/kg i.v.): -57 ± 6%
Δ AP % DIAST (male Wistar rats; 800 μg/kg i.v.): -34.0 ± 3.1%
Δ AP % SYST (male Wistar rats; 800 μg/kg i.v.): -27.0 ± 3.6%
Δ AP DIAST (male Wistar rats; 800 μg/kg i.v.): -31.2 ± 3.1 mmHg
Δ AP SYST (male Wistar rats; 800 μg/kg i.v.): -30.0 ± 3.6 mmHg
Δ HR (male Wistar rats; 800 μg/kg i.v.): -16 ± 5.5 beats/min
Δ HR % (male Wistar rats; 800 μg/kg i.v.): -5 ± 2%
Δ SV (male Wistar rats; 800 μg/kg i.v.): -85.8 ± 9 µL
Δ SV % (male Wistar rats; 800 μg/kg i.v.): -72 ± 9%
Δ TV (male Wistar rats; 800 μg/kg i.v.): -93 ± 8%
Δ dp/dt (male Wistar rats; 800 μg/kg i.v.): +3282 ± 269 mmHg/sec
Δ dp/dt % (male Wistar rats; 800 μg/kg i.v.): +51 ± 7%
Δ AF (male Wistar rats; 1600 μg/kg i.v.): -36.1 ± 4.8 mL/min
Δ AF % (male Wistar rats; 1600 μg/kg i.v.): -83 ± 5%
Δ AP % DIAST (male Wistar rats; 1600 μg/kg i.v.): -47.0 ± 6.8%
Δ AP % SYST (male Wistar rats; 1600 μg/kg i.v.): -36.0 ± 5.3%
Δ AP DIAST (male Wistar rats; 1600 μg/kg i.v.): -43.4 ± 6.8 mmHg
Δ AP SYST (male Wistar rats; 1600 μg/kg i.v.): -41.1 ± 5.3 mmHg
Δ HR (male Wistar rats; 1600 μg/kg i.v.): -30 ± 6 beats/min
Δ HR % (male Wistar rats; 1600 μg/kg i.v.): -9 ± 3%
Δ SV (male Wistar rats; 1600 μg/kg i.v.): -97.4 ± 8 µL
Δ SV % (male Wistar rats; 1600 μg/kg i.v.): -82 ± 8%
Δ TV (male Wistar rats; 1600 μg/kg i.v.): -98 ± 5%
Δ dp/dt (male Wistar rats; 1600 μg/kg i.v.): +3676 ± 264 mmHg/sec
Δ dp/dt % (male Wistar rats; 1600 μg/kg i.v.): +57 ± 6%
Δ AF (male Wistar rats; 3200 μg/kg i.v.): -41.0 ± 6.9 mL/min
Δ AF % (male Wistar rats; 3200 μg/kg i.v.): -94 ± 7%
Δ AP % DIAST (male Wistar rats; 3200 μg/kg i.v.): -58.0 ± 4.2%
Δ AP % SYST (male Wistar rats; 3200 μg/kg i.v.): -42.0 ± 6.5%
Δ AP DIAST (male Wistar rats; 3200 μg/kg i.v.): -53.0 ± 4.2 mmHg
Δ AP SYST (male Wistar rats; 3200 μg/kg i.v.): -47.8 ± 6.5 mmHg
Δ HR (male Wistar rats; 3200 μg/kg i.v.): -41 ± 8 beats/min
Δ HR % (male Wistar rats; 3200 μg/kg i.v.): -12 ± 3%
Δ SV (male Wistar rats; 3200 μg/kg i.v.): -117.2 ± 8 µL
Δ SV % (male Wistar rats; 3200 μg/kg i.v.): -98 ± 8%
Δ TV (male Wistar rats; 3200 μg/kg i.v.): -100%
Δ dp/dt (male Wistar rats; 3200 μg/kg i.v.): +4708 ± 430 mmHg/sec
Δ dp/dt % (male Wistar rats; 3200 μg/kg i.v.): +73 ± 9%
reflected tachycardia (in words) (male Wistar rats; all dose levels, i.v., rat): does not cause any reflected tachycardia
bradycardia / reduction of heart rate (in words) (male Wistar rats; all doses, i.v., rat): reduction of heart rate (HR), at all doses
action on the heart inotropism (in words) (male Wistar rats; i.v., rat): a constant stimulating action on the heart inotropism
hypotensive effect with respect to guanido-I (in words) (male Wistar rats; i.v., rat, vs guanido-I): higher pharmacological power as to hypotensive effect
effects on AP, AF, RF and TV (in words) (male Wistar rats; i.v., increase at 50-100 or 50-200 μg/kg, decrease up to 3,200 μg/kg): biphasic effects on AP, AF, RF and TV
